The values that follow come from US10975037B2 (priority 2018, dated 2021).

Counter-ions that a name gives are not always drawn. Like-named read-outs stand apart in the source and are kept apart here.

As a reminder, the Kd is the equilibrium constant for the complex coming apart. What is called inhibition is the drop in the measured response relative to a control, in per cent. By IC50 is commonly meant the concentration needed to halve the response being measured. A low value points to greater potency in that assay.

In assay [1] the target is human RORγt ligand binding domain (RORγt LBD) (Homo sapiens (Human), UniProt P51449). Kind of assay: RORγt ThermoFluor® assay (thermal shift binding). In a few lines: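 Thermal shift with 0.065 mg/mL RORγt LBD and 60 μM 1,8-ANS in 100 mM Hepes pH 7.0, 10 mM NaCl, 2.5 mM GSH, 0.002% Tween-20.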
Sequence of human RORγt ligand binding domain (RORγt LBD) (P51449 other isoform, or with tags, fused parts or gaps): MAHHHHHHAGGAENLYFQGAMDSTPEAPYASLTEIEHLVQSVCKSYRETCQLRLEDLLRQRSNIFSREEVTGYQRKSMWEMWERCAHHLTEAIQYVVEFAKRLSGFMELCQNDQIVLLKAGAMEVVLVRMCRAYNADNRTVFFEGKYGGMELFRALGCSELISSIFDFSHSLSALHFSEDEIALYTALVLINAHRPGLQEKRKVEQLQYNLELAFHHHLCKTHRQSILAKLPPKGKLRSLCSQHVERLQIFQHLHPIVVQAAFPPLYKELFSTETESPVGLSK
On the technique in general: Differential scanning fluorimetry follows unfolding on heating by fluorescence.

The target of assay [2] is full-length human RORγt (Homo sapiens (Human), UniProt P51449). The experiment in a line: RORγt (full-length human) reporter assay, conditions A or B, HEK293T cells. Format: cell-based. The note with it: for inhibition at 2 µM: 2 μM compound concentration; for inhibition at 2 µM / inhibition at 3 µM / inhibition at […] / inhibition at 0.67 µM: read-out: RORγt (FL) Reporter Assay A or B, % inhibition; for IC50: RORγt (FL) Reporter Assay A or B, IC50, HEK293T cells; for inhibition at 3 µM: 3 μM compound concentration (footnote *). Put shortly: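 Dual-luciferase read-out was taken after an overnight (16–20 h) compound exposure. Firefly data were scaled between DMSO-only and saturating reference compound, Renilla-normalized, then plotted against concentration for IC50.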
Sequence of full-length human RORγt (P51449 other isoform, or with tags, fused parts or gaps): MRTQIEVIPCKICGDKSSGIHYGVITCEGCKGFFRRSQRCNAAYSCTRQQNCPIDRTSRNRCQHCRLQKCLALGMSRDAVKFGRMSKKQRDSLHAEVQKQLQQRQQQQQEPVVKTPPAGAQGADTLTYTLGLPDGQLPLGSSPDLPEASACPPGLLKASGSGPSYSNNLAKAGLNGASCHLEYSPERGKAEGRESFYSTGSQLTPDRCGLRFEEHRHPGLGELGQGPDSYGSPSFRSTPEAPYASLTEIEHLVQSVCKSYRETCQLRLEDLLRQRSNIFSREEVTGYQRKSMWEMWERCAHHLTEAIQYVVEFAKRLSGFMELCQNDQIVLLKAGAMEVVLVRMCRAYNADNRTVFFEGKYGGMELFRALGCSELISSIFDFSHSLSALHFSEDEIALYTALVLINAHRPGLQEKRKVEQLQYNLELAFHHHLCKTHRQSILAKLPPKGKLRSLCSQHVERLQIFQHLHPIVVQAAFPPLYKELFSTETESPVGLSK
In general terms: Reporter assays use an easily measured gene product as a stand-in for the process of interest.

Setting [3] is: read-out: ThermoFluor® Assay, Kd.
The mark [4] stands for this setting: HEK-293T, 0.67 μM compound concentration (footnote ****).

Regarding `CCn1nc(C(=O)NC[C@H]2CC[C@H](S(C)(=O)=O)CC2)c(Cl)c1-c1ccc(OCC2(C)CC2)cc1OC` [Example 215, 4-Chloro-1-ethyl-5-(2-methoxy-4-((1-methylcyclopropyl)methoxy)phenyl)-N-(((1r,4r)-4-(methylsulfonyl)cyclohexyl)methyl)-1H-pyrazole-3-carboxamide], the Kd in assay [1] (setting [3]) stood at 6.6 nM. In addition, the inhibition at 2 µM in assay [2] (HEK-293T) came to 80%. In assay [2], the midpoint of inhibition, the IC50, lay at 56 nM.

As to `CCn1nc(C(=O)NC[C@H]2CC[C@H](S(C)(=O)=O)CN2)c(Cl)c1-c1ccc(CC(C)(C)C(F)(F)F)cc1OC(F)F` (stereo in doubt) [Example 8, 4-Chloro-5-(2-(difluoromethoxy)-4-(3,3,3-trifluoro-2,2-dimethylpropyl)phenyl)-1-ethyl-N-(((2RS,5SR)-5-(methylsulfonyl)piperidin-2-yl)methyl)-1H-pyrazole-3-carboxamide Hydrobromide], in assay [1] (ThermoFluor® Assay, Kd), the Kd was found to be 0.73 nM. Besides, the inhibition at 3 µM in assay [2] (HEK-293T) was 92%. In assay [2], the IC50 is 13 nM.

Regarding `CCn1nc(C(=O)NC[C@]2(CO)CC[C@@H](S(C)(=O)=O)CC2)c(Cl)c1-c1ccc(N[C@H](C)C(F)(F)F)cc1OC` (relative stereo) [Example 93, 4-Chloro-1-ethyl-N-(((1s*,4S*)-1-(hydroxymethyl)-4-(methylsulfonyl)cyclohexyl)methyl)-5-(2-methoxy-4-(((R)-1,1,1-trifluoropropan-2-yl)amino)phenyl)-1H-pyrazole-3-carboxamide], the Kd in assay [1] (ThermoFluor® Assay, Kd) stood at 11 nM. The inhibition at 2 µM in assay [2] (HEK-293T) is 96%. Further, 30 nM corresponded to half-maximal inhibition in assay [2] (IC50).

Regarding `CCn1nc(C(=O)NC[C@H]2CC[C@H](S(N)(=O)=O)CC2)c(Cl)c1-c1ccc(C[C@H](C)C(F)(F)F)cc1OC(F)F` (single isomer, unassigned) [Example 54, 4-Chloro-5-(2-(difluoromethoxy)-4-((S*)-3,3,3-trifluoro-2-methylpropyl)phenyl)-1-ethyl-N-(((1r,4S)-4-sulfamoylcyclohexyl)methyl)-1H-pyrazole-3-carboxamide], in assay [1] (ThermoFluor® Assay, Kd), the Kd worked out at 0.69 nM. For the same molecule, the inhibition at […] in assay [2] (HEK-293T, 0.33 μM compound concentration (footnote *****)) came to 102%. Half-maximal inhibition in assay [2] (IC50) was put at 9.8 nM.

Take `Cn1nc(C(=O)NC[C@]2(O)CC[C@@H](S(C)(=O)=O)CC2)c(Cl)c1-c1ccc(CC(C)(C)C(F)(F)F)cc1OC(F)F` [Example 154, 4-Chloro-5-(2-(difluoromethoxy)-4-(3,3,3-trifluoro-2,2-dimethylpropyl)phenyl)-N-(((1s,4s)-1-hydroxy-4-(methylsulfonyl)cyclohexyl)methyl)-1-methyl-1H-pyrazole-3-carboxamide]: the Kd in assay [1] (setting [3]) is 0.79 nM. For the same molecule, in assay [2] (setting [4]), the inhibition at 0.67 µM stood at 91%. Also, the IC50 in assay [2] amounted to 4.5 nM.

`CCn1nc(C(=O)NC[C@]2(O)CC[C@@H](S(C)(=O)=O)CC2)c(Cl)c1-c1ccc(C(O)(C(F)(F)F)C(F)(F)F)cc1OC(F)F` [Example 117, 4-Chloro-5-(2-(difluoromethoxy)-4-(1,1,1,3,3,3-hexafluoro-2-hydroxypropan-2-yl)phenyl)-1-ethyl-N-(((1s,4s)-1-hydroxy-4-(methylsulfonyl)cyclohexyl)methyl)-1H-pyrazole-3-carboxamide]: the Kd in assay [1] (setting [3]) turned out to be 0.27 nM. The inhibition at 3 µM in assay [2] (HEK-293T) is 102%. In assay [2], it took 4.2 nM to reach half-maximal inhibition (IC50).

For the molecule `CCn1nc(C(=O)NC[C@]2(O)CC[C@@H](S(C)(=O)=O)CC2)c(Cl)c1-c1c(F)cc(C[C@H](C)C(F)(F)F)cc1F` (single isomer, unassigned) [Example 198, 4-Chloro-5-(2,6-difluoro-4-((S*)-3,3,3-trifluoro-2-methylpropyl)phenyl)-1-ethyl-N-(((1s,4R)-1-hydroxy-4-(methylsulfonyl)cyclohexyl)methyl)-1H-pyrazole-3-carboxamide], in assay [1] (ThermoFluor® Assay, Kd), the Kd came to 16 nM. Also, the inhibition at 2 µM in assay [2] (HEK-293T) was determined as 69%. The IC50 in assay [2] stood at 79 nM.

As for `CCn1nc(C(=O)NC[C@H]2CC[C@H](S(C)(=O)=O)CC2)c(Cl)c1-c1ccc(N[C@H](C)C(F)(F)F)cc1` [Example 194, 4-Chloro-1-ethyl-N-(((1r,4R)-4-(methylsulfonyl)cyclohexyl)methyl)-5-(4-(((R)-1,1,1-trifluoropropan-2-yl)amino)phenyl)-1H-pyrazole-3-carboxamide], in assay [1] (setting [3]), the Kd was 29 nM. Further, the inhibition at 2 µM in assay [2] (HEK-293T) is 93%. Besides, in assay [2], the IC50 amounted to 120 nM.

For `COc1cc(N[C@H](C)C(F)(F)F)ccc1-c1c(Cl)c(C(=O)NC[C@H]2CC[C@H](S(C)(=O)=O)CC2)nn1CC(C)C` [Example 28, 4-Chloro-1-isobutyl-5-(2-methoxy-4-(((R)-1,1,1-trifluoropropan-2-yl)amino)phenyl)-N-(((1r,4R)-4-(methylsulfonyl)cyclohexyl)methyl)-1H-pyrazole-3-carboxamide], the Kd in assay [1] (setting [3]) is 2.5 nM. In addition, in assay [2] (HEK-293T), the inhibition at 2 µM amounted to 103%. In addition, the IC50 in assay [2] was found to be 23 nM.

For `CCn1nc(C(=O)NC[C@]2(O)CC[C@@H](S(C)(=O)=O)CC2)c(Cl)c1-c1ccc([C@](C)(O)CC(F)(F)F)cc1OC(F)F` (single isomer, unassigned) [Example 100, 4-Chloro-5-(2-(difluoromethoxy)-4-((R*)-4,4,4-trifluoro-2-hydroxybutan-2-yl)phenyl)-1-ethyl-N-(((1s,4S)-1-hydroxy-4-(methylsulfonyl)cyclohexyl)methyl)-1H-pyrazole-3-carboxamide], the Kd in assay [1] (ThermoFluor® Assay, Kd) worked out at 69 nM. In assay [2] (HEK-293T), the inhibition at 3 µM is 49%. In assay [2], half-maximal inhibition (IC50) was put at 220 nM.

Consider `CCn1nc(C(=O)NC[C@H]2CC[C@H](S(C)(=O)=O)CC2)c(Cl)c1-c1ccc(CCC(F)(F)F)cc1OC` [Example 38, 4-Chloro-1-ethyl-5-(2-methoxy-4-(3,3,3-trifluoropropyl)phenyl)-N-(((1r,4r)-4-(methylsulfonyl)cyclohexyl)methyl)-1H-pyrazole-3-carboxamide], for which, in assay [1] (setting [3]), the Kd was 3.3 nM. Moreover, the inhibition at 0.67 µM in assay [2] (HEK-293T) stood at 84%. The molecule further registered an IC50 in assay [2] of 12 nM.

Consider `CCn1nc(C(=O)NC[C@]2(C(=O)O)CC[C@@H](S(C)(=O)=O)CC2)c(Cl)c1-c1ccc(N[C@H](C)C(F)(F)F)cc1OC` (relative stereo) [Example 97, (1s*,4S*)-1-((4-Chloro-1-ethyl-5-(2-methoxy-4-(((R)-1,1,1-trifluoropropan-2-yl)amino)phenyl)-1H-pyrazole-3-carboxamido)methyl)-4-(methylsulfonyl)cyclohexane-1-carboxylic Acid], for which the Kd in assay [1] (ThermoFluor® Assay, Kd) is 180 nM. Besides, in assay [2] (HEK-293T, read-out: RORγt (FL) Reporter Assay A or B, % inhibition @ 6 μM, 6 μM compound concentration), the inhibition at 6 µM was 94%. Further, in assay [2], the midpoint of inhibition, the IC50, lay at 730 nM.

In the case of `CCn1nc(C(=O)NC[C@H]2CC[C@H](S(C)(=O)=O)CC2)c(Cl)c1-c1ccc(CC(C)(C)C(F)(F)F)cc1C(F)(F)F` [Example 162, 4-Chloro-1-ethyl-N-(((1r,4r)-4-(methylsulfonyl)cyclohexyl)methyl)-5-(4-(3,3,3-trifluoro-2,2-dimethylpropyl)-2-(trifluoromethyl)phenyl)-1H-pyrazole-3-carboxamide], the Kd in assay [1] (setting [3]) turned out to be 0.48 nM. The inhibition at […] in assay [2] (HEK-293T, 0.22 μM compound concentration (footnote *******)) is 72%. The molecule also showed an IC50 in assay [2] of 5.9 nM.

Take `CCn1nc(C(=O)NC[C@@]2(O)CC[C@H](S(C)(=O)=O)C[C@@H]2O)c(Cl)c1-c1ccc(CC(C)(C)C(F)(F)F)cc1OC(F)F` (single isomer, unassigned) [Example 47, 4-Chloro-5-(2-(difluoromethoxy)-4-(3,3,3-trifluoro-2,2-dimethylpropyl)phenyl)-N-(((1S*,2S*,4S*)-1,2-dihydroxy-4-(methylsulfonyl)cyclohexyl)methyl)-1-ethyl-1H-pyrazole-3-carboxamide]: the Kd in assay [1] (ThermoFluor® Assay, Kd) was 0.37 nM. In assay [2] (HEK-293T), the inhibition at 2 µM was determined as 103%. This molecule gave an IC50 in assay [2] of 1.7 nM.

Consider `CCn1nc(C(=O)NC[C@H]2CC[C@H](S(C)(=O)=O)CC2)c(Cl)c1-c1ccc(CC(C)C)cc1OC` [Example 72, 4-Chloro-1-ethyl-5-(4-isobutyl-2-methoxyphenyl)-N-(((1r,4r)-4-(methylsulfonyl)cyclohexyl)methyl)-1H-pyrazole-3-carboxamide], for which the Kd in assay [1] (setting [3]) stood at 0.29 nM. The inhibition at 2 µM in assay [2] (HEK-293T) turned out to be 67%. In assay [2], the IC50 is 10 nM.

In the case of `CCn1nc(C(=O)NC[C@]2(O)CC[C@@H](S(C)(=O)=O)CC2)c(C)c1-c1ccc(CCCC(F)(F)F)cc1OC` [Example 83, 1-Ethyl-N-(((1s,4s)-1-hydroxy-4-(methylsulfonyl)cyclohexyl)methyl)-5-(2-methoxy-4-(4,4,4-trifluorobutyl)phenyl)-4-methyl-1H-pyrazole-3-carboxamide], the dissociation constant (Kd) in assay [1] (setting [3]) was determined as 11 nM. For the same molecule, the inhibition at 0.67 µM in assay [2] (setting [4]) was determined as 87%. Besides, the IC50 in assay [2] was found to be 33 nM.

For the molecule `CCn1nc(C(=O)NC[C@H]2CC[C@H](S(C)(=O)=O)CC2)c(Cl)c1-c1ccc(NC(C(F)(F)F)C(F)(F)F)cc1OC` [Example 216, 4-Chloro-1-ethyl-5-(4-((1,1,1,3,33-hexafluoropropan-2-yl)amino)-2-methoxyphenyl)-N-(((1r,4r)-4-(methylsulfonyl)cyclohexyl)methyl)-1H-pyrazole-3-carboxamide], the Kd in assay [1] (setting [3]) came out at 0.97 nM. In assay [2] (HEK-293T), the inhibition at 2 µM worked out at 107%. In addition, the IC50 in assay [2] came out at 28 nM.
